# US20110281883A1, “4-Phenyl-pyrane-3,5-diones, 4-Phenyl-thiopyrane-3,5-diones and Cyclohexanetriones and Their Use as Insecticides, Acaricides and/or Fungicides” (Bayer Cropscience AG, priority 2009, published 2011)
# Key:
# [1] = tested on: mustard beetle larvae (Phaedon cochleariae); experiment: Phaedon cochleariae test (PHAECO spray application); type: in vivo; conditions: 168 h, application rate 500 g/ha, sprayed Chinese cabbage (Brassica pekinesis) leaf-disks, after 7 days, read-out: mortality in % (good activity)
# Procedure: Phaedon cochleariae—Test; (PHAECO Spray Application)
# Solvent: 78.0 parts by weight of acetone • • 1.5 parts by weight of dimethylformamide
# Emulsifier: 0.5 parts by weight of alkylaryl polyglycolether
# To produce a suitable preparation of active compound, 1 part by weight of active compound is mixed with the stated amount of solvent and emulsifier, and the concentrate is diluted with emulsifier-containing water to the desired concentration.Chinese cabbage (Brassica pekinesis) leaf-disks are sprayed with a preparation of the active ingredient of the desired concentration. Once dry, the leaf disks are infested with mustard beetle larvae (Phaedon cochleariae). After 7 days mortality in % is determined. 100% means that all beetle larvae have been killed and 0% means that none of the beetle larvae have been killed.
# [2] = tested on: two spotted spidermite (Tetranychus urticae), OP-resistant; experiment: Tetranychus urticae test; OP-resistant (TETRUR spray application); type: in vivo; conditions: in Phaseolus vulgaris, 144 h, read-out: mortality in % (good activity)
# Procedure: Tetranychus urticae—Test; OP-Resistant (TETRUR Spray Application)
# Solvent: 78.0 parts by weight acetone • 1.5 parts by weight dimethylformamide
# Emulsifier: 0.5 parts by weight alkylarylpolyglcolether
# To produce a suitable preparation of active compound, 1 part by weight of active compound is mixed with the stated amount of solvent and emulsifier, and the concentrate is diluted with emulsifier-containing water to the desired concentration.French beans (Phaseolus vulgaris) which are heavily infested with all stages of the two spotted spidermite (Tetranychus urticae), are sprayed with a preparation of the active ingredient at the desired concentration. After 6 days mortality in % is determined. 100% means that all spider mites have been killed and 0% means that none of the spider mites have been killed.
melting point,Structure (SMILES),mortality at 500 g/ha [1],mortality at 100 g/ha [2]
,CCc1ccc(-c2ccc(Cl)cc2)cc1C1=C(O)C(C)(C)C(=O)C(C)(C)C1=O [Compound B-1],> 80%,≥ 80%
123 to 124 °C,CCc1ccc(-c2ccc(Cl)cc2)cc1C1=C(O)C(C)(C)OC(C)(COC)C1=O (centres unmarked),,
79.5 °C,CCc1ccc(-c2ccc(Cl)cc2)cc1C1=C(O)C2CCCC(C1=O)C2=O (centres unmarked),,
165 to 167 °C,CCc1ccc(-c2ccc(F)cc2)cc1C1=C(O)[C@@]2(C)CC[C@H](O2)C1=O,,
